# From BindingDB's records for doi:10.1111/cbdd.12681 (Peking University, 2016)
# pIC50: −log10 of the molar value.
# Target: T1, Dihydrofolate reductase (Homo sapiens, UniProt P00374)
# T1 sequence (P00374 whole entry): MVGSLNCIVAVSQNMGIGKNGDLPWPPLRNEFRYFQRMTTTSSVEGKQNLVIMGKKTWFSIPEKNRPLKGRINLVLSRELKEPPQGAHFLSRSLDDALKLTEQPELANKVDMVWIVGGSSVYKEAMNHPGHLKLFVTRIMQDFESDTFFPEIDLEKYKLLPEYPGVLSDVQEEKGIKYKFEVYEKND
# Assay: DHFR Inhibition Assay
# Conditions: pH 7.5
# Experimental: The recombinant human (rh) DHFR was purchased from Sigma-Aldrich (Shanghai, China). All rhDHFR enzymes were assayed spectrophotometrically in a solution containing 0.1 mM dihydrofolate, 0.3 mM NADPH and 100 mM KCl at pH 7.5 and 32 °C. The reaction was initiated with an amount of enzyme yielding a change in O.D. at 340 nm measured by microplate spectrophotometer.
row,Compound,pIC50
1,"C=CCN1c2c(N)nc(N)nc2CCC1CCc1ccc(C(=O)N[C@@H](CCC(=O)O)C(=O)O)cc1 (stereo partly drawn) [4-[2-(2,4-Diamino-5-allyl-5,6,7,8-tetrahydropyrido[3,2-d]pyrimidin-6-yl)ethyl]benzoyl-L-glutamic acid (20a)]",6.15
2,"C=CCN1c2c(O)nc(N)nc2CCC1CCc1ccc(C(=O)N[C@@H](CCC(=O)O)C(=O)O)cc1 (stereo partly drawn) [4-[2-(2-Amino-4-hydroxy-5-allyl-5,6,7,8-tetrahydropyrido[3,2-d]pyrimidin-6-yl)ethyl]benzoyl-L-glutamic acid (23a)]",6.53
3,"Nc1nc(N)c2c(n1)CCC(CCc1ccc(C(=O)N[C@@H](CCC(=O)O)C(=O)O)cc1)N2CC(Br)CBr (stereo partly drawn) [4-[2-[2,4-Diamino-5-(2,3-dibromopropyl)-5,6,7,8-tetrahydropyrido[3,2-d]pyrimidin-6-yl]ethyl]benzoyl-L-glutamic acid (21a)]",6.17
4,"Nc1nc(N)c2c(n1)CCC(CNc1ccc(C(=O)N[C@@H](CCC(=O)O)C(=O)O)cc1)N2C=O (stereo partly drawn) [N-[4-[2-(2,4-Diamino-5-formyl-5,6,7,8-tetrahydropyrido[3,2-d]pyrimidin-6-yl)methyl]amino]benzoyl]-L-glutamic acid (24a)]",6.23
5,"Nc1nc(O)c2c(n1)CCC(CCc1ccc(C(=O)N[C@@H](CCC(=O)O)C(=O)O)cc1)N2 (stereo partly drawn) [4-[2-(2-Diamino-4-hydroxy-5,6,7,8-tetrahydropyrido[3,2-d]pyrimidin-6-yl)ethyl]benzoyl-L-glutamic acid (18a)]",7.23
6,"Nc1nc(N)c2c(n1)CCC(CCc1ccc(C(=O)N[C@@H](CCC(=O)O)C(=O)O)cc1)N2 (stereo partly drawn) [4-[2-(2,4-Diamino-5,6,7,8-tetrahydropyrido[3,2-d]pyrimidin-6-yl)ethyl]benzoyl-L-glutamic acid (17a)]",7.40
7,"Nc1nc(O)c2c(n1)CCC(CCc1ccc(C(=O)N[C@@H](CCC(=O)O)C(=O)O)cc1)N2C=O (stereo partly drawn) [4-[2-(2-Amino-4-hydroxy-5-formyl-5,6,7,8-tetrahydropyrido[3,2-d]pyrimidin-6-yl)ethyl] benzoyl-L-glutamic acid (22a)]",5.00
8,"Nc1nc(N)c2c(n1)CCC(CCc1ccc(C(=O)N[C@@H](CCC(=O)O)C(=O)O)cc1)N2C=O (stereo partly drawn) [4-[2-(2,4-Diamino-5-formyl-5,6,7,8-tetrahydropyrido[3,2-d]pyrimidin-6-yl)ethyl]benzoyl-L-glutamic acid (19a)]",7.39
